Data as given in the supplement of paper PMC10883282.

Legend:
Assay in all cases: relative viability vs DMSO control (72 h) (fraction); higher = more viable cells
VA-ES-BJ = system: VA-ES-BJ
Summary of the method: (§1)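 Sarcoma cell lines went into 384-well plates at densities chosen to reach 80–90% confluence. After 24 h, each well received 2.5 µl of serially diluted compound, with source plates running from 10 mM to 0.0002 mM, and the plates were kept 72 h at 37 °C, 5% CO2, alongside 0.1% DMSO vehicle and a 5 µM positive control. Relative viability was derived from ATPLite readings as percent growth and averaged over up to triplicate wells. The data were then rescaled so that 1 stands for full and 0 for none.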

SK-LMS-1 = system: SK-LMS-1
Summary of the method: as §1

RD-ES = system: RD-ES
Summary of the method: as §1

SW982 = system: SW982
Summary of the method: as §1

SW872 = system: SW872
Summary of the method: as §1

HT1080 = system: HT1080
Summary of the method: as §1

KHOS-NP = system: KHOS-NP
Summary of the method: as §1

G401 = system: G401
Summary of the method: as §1

A204 = system: A204
Summary of the method: as §1

HS729 = system: HS729
Summary of the method: as §1

SW684 = system: SW684
Summary of the method: as §1

SK-ES-1 = system: SK-ES-1
Summary of the method: as §1

Cc1cc(Nc2ncc(Cl)c(Nc3ccccc3S(=O)(=O)C(C)C)n2)c(OC(C)C)cc1C1CCNCC1 [Ceritinib]
Settings	relative viability
A204, 0.00017 µM	1.05
A204, 0.00051 µM	1.07
A204, 0.00152 µM	1.08
A204, 0.00457 µM	1.07
A204, 0.01372 µM	1.07
A204, 0.04115 µM	1.06
A204, 0.1235 µM	1.06
A204, 0.3704 µM	1.04
A204, 1.111 µM	0.928
A204, 3.333 µM	0.334
A204, 10 µM	0.0012
G401, 0.00017 µM	0.953
G401, 0.00051 µM	0.932
G401, 0.00152 µM	0.971
G401, 0.00457 µM	0.974
G401, 0.01372 µM	0.972
G401, 0.04115 µM	0.961
G401, 0.1235 µM	0.918
G401, 0.3704 µM	0.788
G401, 1.111 µM	0.615
G401, 3.333 µM	0.416
G401, 10 µM	-0.00287
HS729, 0.00017 µM	0.955
HS729, 0.00051 µM	1.02
HS729, 0.00152 µM	1.03
HS729, 0.00457 µM	1.01
HS729, 0.01372 µM	1.03
HS729, 0.04115 µM	1.02
HS729, 0.1235 µM	0.95
HS729, 0.3704 µM	0.847
HS729, 1.111 µM	0.751
HS729, 3.333 µM	0.626
HS729, 10 µM	0.0042
HT1080, 0.00017 µM	1.02
HT1080, 0.00051 µM	1.01
HT1080, 0.00152 µM	1.02
HT1080, 0.00457 µM	1.04
HT1080, 0.01372 µM	1.02
HT1080, 0.04115 µM	1.06
HT1080, 0.1235 µM	1.04
HT1080, 0.3704 µM	1.03
HT1080, 1.111 µM	0.983
HT1080, 3.333 µM	0.777
HT1080, 10 µM	-0.000267
KHOS-NP, 0.00017 µM	1.04
KHOS-NP, 0.00051 µM	1.04
KHOS-NP, 0.00152 µM	1.04
KHOS-NP, 0.00457 µM	1.06
KHOS-NP, 0.01372 µM	1.06
KHOS-NP, 0.04115 µM	1.05
KHOS-NP, 0.1235 µM	1.05
KHOS-NP, 0.3704 µM	1.02
KHOS-NP, 1.111 µM	1.02
KHOS-NP, 3.333 µM	0.95
KHOS-NP, 10 µM	0.0055
RD-ES, 0.00017 µM	0.94
RD-ES, 0.00051 µM	0.938
RD-ES, 0.00152 µM	0.955
RD-ES, 0.00457 µM	0.957
RD-ES, 0.01372 µM	0.955
RD-ES, 0.04115 µM	0.943
RD-ES, 0.1235 µM	0.89
RD-ES, 0.3704 µM	0.681
RD-ES, 1.111 µM	0.454
RD-ES, 3.333 µM	0.304
RD-ES, 10 µM	0.00243
SK-ES-1, 0.00017 µM	0.967
SK-ES-1, 0.00051 µM	0.984
SK-ES-1, 0.00152 µM	1
SK-ES-1, 0.00457 µM	0.974
SK-ES-1, 0.01372 µM	0.961
SK-ES-1, 0.04115 µM	0.995
SK-ES-1, 0.1235 µM	0.914
SK-ES-1, 0.3704 µM	0.6537
SK-ES-1, 1.111 µM	0.339
SK-ES-1, 3.333 µM	0.102
SK-ES-1, 10 µM	0.000733
SK-LMS-1, 0.00017 µM	1.01
SK-LMS-1, 0.00051 µM	1.04
SK-LMS-1, 0.00152 µM	1.04
SK-LMS-1, 0.00457 µM	1.03
SK-LMS-1, 0.01372 µM	1.022
SK-LMS-1, 0.04115 µM	1.01
SK-LMS-1, 0.1235 µM	1.05
SK-LMS-1, 0.3704 µM	0.959
SK-LMS-1, 1.111 µM	0.96
SK-LMS-1, 3.333 µM	0.794
SK-LMS-1, 10 µM	0.00573
SW684, 0.00017 µM	1.07
SW684, 0.00051 µM	1.083
SW684, 0.00152 µM	1.09
SW684, 0.00457 µM	1.08
SW684, 0.01372 µM	1.12
SW684, 0.04115 µM	1.095
SW684, 0.1235 µM	1.122
SW684, 0.3704 µM	1.08
SW684, 1.111 µM	1.15
SW684, 3.333 µM	0.883
SW684, 10 µM	-0.0212
SW872, 0.00017 µM	1
SW872, 0.00051 µM	1.02
SW872, 0.00152 µM	1.07
SW872, 0.00457 µM	1.06
SW872, 0.01372 µM	1.09
SW872, 0.04115 µM	1.04
SW872, 0.1235 µM	1
SW872, 0.3704 µM	0.946
SW872, 1.111 µM	0.8717
SW872, 3.333 µM	0.631
SW872, 10 µM	-0.00807
SW982, 0.00017 µM	0.974
SW982, 0.00051 µM	0.943
SW982, 0.00152 µM	0.946
SW982, 0.00457 µM	0.92
SW982, 0.01372 µM	0.959
SW982, 0.04115 µM	0.9674
SW982, 0.1235 µM	0.902
SW982, 0.3704 µM	0.765
SW982, 1.111 µM	0.64
SW982, 3.333 µM	0.311
SW982, 10 µM	0.00217
VA-ES-BJ, 0.00017 µM	1.05
VA-ES-BJ, 0.00051 µM	1.04
VA-ES-BJ, 0.00152 µM	1.04
VA-ES-BJ, 0.00457 µM	1.05
VA-ES-BJ, 0.01372 µM	1.06
VA-ES-BJ, 0.04115 µM	1.03
VA-ES-BJ, 0.1235 µM	1.02
VA-ES-BJ, 0.3704 µM	0.975
VA-ES-BJ, 1.111 µM	0.954
VA-ES-BJ, 3.333 µM	0.929
VA-ES-BJ, 10 µM	-0.008
